Data: patent US20090111774A1, “PMEA LIPID CONJUGATES” (Luitpold Pharmaceuticals, Inc., priority 2007, published 2009)
“And” between values parts separate entries of the source, which are not always exact repeats. Equal values may be shown once.

Assays:
microtubule assembly = settings: Bradley et al., Clin. Cancer Res. 2001; cited from earlier work
HSV-1 = assay: In vitro antiviral screening (selectivity index), HSV-1; assay type: cell-based, herpes simplex virus type 1
HSV-2 = assay: In vitro antiviral screening (selectivity index), HSV-2; assay type: cell-based, herpes simplex virus type 2
HCMV = assay: In vitro antiviral screening (selectivity index), HCMV; assay type: cell-based, herpes cytomegalovirus
VZV = assay: In vitro antiviral screening (selectivity index), VZV; assay type: cell-based, varicella-zoster virus
BK (polyoma) = assay type: cell-based, polyoma (BK) virus
Cowpox = assay type: cell-based
Vaccinia = assay type: cell-based
Measles = assay: In vitro antiviral screening (selectivity index), Measles (NR assay); assay type: cell-based, measles virus
Dengue = assay: In vitro antiviral screening (selectivity index), Dengue; assay type: cell-based
Adeno = assay type: cell-based
Yellow Fever = assay type: cell-based
Punta Toro = assay type: cell-based
Flu A = assay type: cell-based
Flu B = assay type: cell-based
SARS = assay type: cell-based
Tacaribe = assay type: cell-based
PIV = assay type: cell-based
RSV A = assay: In vitro antiviral screening (selectivity index), RSV A; assay type: cell-based
RV 2 = assay type: cell-based
VEE = assay type: cell-based
Rift Valley Fever = assay type: cell-based
Pichinde = assay type: cell-based
HPV-11 = assay: In vitro antiviral screening (selectivity index), HPV-11; assay type: cell-based; settings: human papillomavirus (HPV)
[1] = cited from earlier work
[2] = molecular target: human immunodeficiency virus-specified reverse transcriptase (Human immunodeficiency virus type 1 group M subtype B, UniProt P04585); settings: HIV reverse transcriptase; cited from earlier work
[3] = molecular target: cellular DNA polymerase alpha (Homo sapiens, UniProt P09884); settings: cited from earlier work
Chain of cellular DNA polymerase alpha (P09884 whole entry): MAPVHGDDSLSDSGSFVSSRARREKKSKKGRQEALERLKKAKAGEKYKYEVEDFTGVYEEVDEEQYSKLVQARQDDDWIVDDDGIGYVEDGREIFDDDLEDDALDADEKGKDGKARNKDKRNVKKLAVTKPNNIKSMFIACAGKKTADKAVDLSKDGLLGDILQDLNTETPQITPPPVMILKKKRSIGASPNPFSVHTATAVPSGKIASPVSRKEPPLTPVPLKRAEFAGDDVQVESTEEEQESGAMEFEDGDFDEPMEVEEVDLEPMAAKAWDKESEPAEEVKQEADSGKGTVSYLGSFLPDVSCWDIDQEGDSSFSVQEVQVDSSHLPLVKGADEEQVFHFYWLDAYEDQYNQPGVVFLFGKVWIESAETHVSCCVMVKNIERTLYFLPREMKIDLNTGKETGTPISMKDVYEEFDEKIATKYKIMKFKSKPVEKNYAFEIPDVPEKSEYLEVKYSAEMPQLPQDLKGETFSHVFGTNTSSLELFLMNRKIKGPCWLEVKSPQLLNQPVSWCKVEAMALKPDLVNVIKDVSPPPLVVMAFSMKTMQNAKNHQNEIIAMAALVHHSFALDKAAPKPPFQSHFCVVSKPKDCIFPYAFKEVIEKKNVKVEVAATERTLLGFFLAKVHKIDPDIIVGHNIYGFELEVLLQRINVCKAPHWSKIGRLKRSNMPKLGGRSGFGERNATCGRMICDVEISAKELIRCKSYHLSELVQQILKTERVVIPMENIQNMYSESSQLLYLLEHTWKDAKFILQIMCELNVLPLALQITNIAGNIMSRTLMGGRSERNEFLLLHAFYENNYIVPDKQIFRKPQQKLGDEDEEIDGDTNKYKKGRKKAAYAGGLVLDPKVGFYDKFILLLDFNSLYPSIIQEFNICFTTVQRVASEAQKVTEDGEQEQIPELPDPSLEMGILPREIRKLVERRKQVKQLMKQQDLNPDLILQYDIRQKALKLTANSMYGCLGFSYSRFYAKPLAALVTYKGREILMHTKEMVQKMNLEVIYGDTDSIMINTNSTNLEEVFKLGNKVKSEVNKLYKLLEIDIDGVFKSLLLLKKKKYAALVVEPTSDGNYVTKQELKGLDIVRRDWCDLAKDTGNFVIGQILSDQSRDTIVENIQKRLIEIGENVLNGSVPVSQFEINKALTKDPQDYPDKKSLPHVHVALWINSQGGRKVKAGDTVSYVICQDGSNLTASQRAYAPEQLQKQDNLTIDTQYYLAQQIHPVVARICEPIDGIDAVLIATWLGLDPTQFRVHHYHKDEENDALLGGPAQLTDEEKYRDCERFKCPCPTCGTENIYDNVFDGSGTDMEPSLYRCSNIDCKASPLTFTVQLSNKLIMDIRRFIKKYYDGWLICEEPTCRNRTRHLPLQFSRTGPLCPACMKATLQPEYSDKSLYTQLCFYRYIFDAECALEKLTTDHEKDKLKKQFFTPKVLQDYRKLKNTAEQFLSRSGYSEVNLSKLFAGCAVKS

For CC/C=C\C/C=C\C/C=C\C/C=C\C/C=C\C/C=C/CCC(=O)O[C@@H](C(=O)O[C@H]1C[C@@]2(O)[C@@H](OC(=O)c3ccccc3)C3[C@](C)(C(=O)[C@H](OC(C)=O)C(=C1C)C2(C)C)[C@@H](O)C[C@H]1OC[C@@]31OC(C)=O)[C@@H](NC(=O)c1ccccc1)c1ccccc1 (stereo partly drawn) [DHA-paclitaxel], the “activity as intact conjugate” value (microtubule assembly) is given as “inactive as intact conjugates”.
In the case of CCCCCCCC/C=C\CCCCCCCC(=O)NC1=NC=NC2C1N=CN2CCOCP(=O)([O-])[O-].[Na+].[Na+] (stereo not drawn) [Formula III, PMEA-oleyl amide], the “SI (selectivity index)” value (HSV-1; HSV-1 (1), first replicate) is reported as >17.8, the “SI (selectivity index)” value (HSV-1; HSV-1 (2), second replicate) is reported as >143 and the “antiviral activity / sensitivity of virus” value (HSV-1; HSV-1, in vitro) is reported as “sensitive only to the compound of Formula III”. For the same compound, the “SI (selectivity index)” value (HSV-2; HSV-2 (1), first replicate) was >8.5, the “SI (selectivity index)” value (HSV-2; HSV-2 (2), second replicate) was 5.7 and the “antiviral activity / sensitivity of virus” value (HSV-2; HSV-2, in vitro) was “sensitive only to the compound of Formula III”. For the same compound, the “SI (selectivity index)” value (HCMV) was 1, the “antiviral activity / sensitivity of virus” value (VZV) was “sensitive” and the “SI (selectivity index)” value (BK (polyoma)) was >213. The “antiviral activity / sensitivity of virus” value (BK (polyoma)) was “sensitive”, the “SI (selectivity index)” value (Cowpox) was 1 and the “SI (selectivity index)” value (Vaccinia) was 1 and >2. For the same compound, the “SI (selectivity index)” value (Measles; Measles (NR assay)) was >20, the “antiviral activity / sensitivity of virus” value (Measles; measles virus, in vitro) was “sensitive only to the compound of Formula III” and the “SI (selectivity index)” value (Dengue) was 1. The “SI (selectivity index)” value (Adeno) was 1, the “SI (selectivity index)” value (Yellow Fever) was 1 and the “SI (selectivity index)” value (Punta Toro) was 1. For the same compound, the “SI (selectivity index)” value (Flu A) was 1, the “SI (selectivity index)” value (Flu B) was 1 and the “SI (selectivity index)” value (SARS) was 1. The “SI (selectivity index)” value (Tacaribe) was 2, the “SI (selectivity index)” value (PIV) was 1 and the “SI (selectivity index)” value (RSV A) was 1. For the same compound, the “SI (selectivity index)” value (RV 2) was 1, the “SI (selectivity index)” value (VEE) was 1 and the “SI (selectivity index)” value (Rift Valley Fever) was 1. The “SI (selectivity index)” value (Pichinde) was 1 and the “antiviral activity / sensitivity of virus” value (HPV-11) was “sensitive only to the compound of Formula III”.
For Nc1ncnc2c1ncn2CCOCP(=O)(O)OP(=O)(O)OP(=O)(O)O [PMEApp], the intracellular half-life [1] is listed as 16 to 18 h, the Ki/Km [2] is listed as 0.01 and the Ki/Km [3] is listed as 0.60.
